Earlier results as cited in patent US5681568A, “Device for delivery of substances and methods of use thereof” (Cambridge NeuroScience, Inc., priority 1994, dated 1997).

What was measured:
[1] = in vivo
[2] = tested on: hypoxic/ischemic brain injury; conditions: rat
[3] = tested on: experimental cerebral ischemia; conditions: after experimental cerebral ischemia, rabbit
[4] = presence of heparin
[5] = tested on: nerve regeneration; conditions: in vivo

Compound: CSCC[C@@H]1NC(=O)[C@H](CC(C)C)NC(=O)[C@H](CCCNC(=N)N)NC(=O)[C@H](CO)NC(=O)[C@@H]2CSSC[C@@H]3NC(=O)[C@H](CO)NC(=O)CNC(=O)[C@H]([C@@H](C)O)NC(=O)[C@H](CSSC[C@H](N)C(=O)N[C@@H](CCCCN)C(=O)NCC(=O)N[C@@H](CCCCN)C(=O)NCC(=O)N[C@@H](C)C(=O)N[C@@H](CCCCN)C(=O)N2)NC(=O)[C@H](CSSC[C@@H](C(N)=O)NC(=O)[C@H](CCCCN)NC(=O)CNC(=O)[C@H](CO)NC(=O)[C@H](CCCNC(=N)N)NC3=O)NC(=O)[C@H](CC(=O)O)NC(=O)[C@H](Cc2ccc(O)cc2)NC1=O [SNX111]
- toxic side effects [1]: severe hypotension

Compound: IGF-1: insulin-like growth factors (IGFs)
- effects in models of hypoxic/ischemic brain injury [2]: therapeutically relevant effects

Compound: TGFβ1: Transforming growth factor β1
- effects in models of hypoxic/ischemic brain injury [2]: therapeutically relevant effects
- effect on infarct size [3]: reduce infarct size

Compound: acidic FGF: member of the fibroblast growth factor (FGF) family known to associate with heparin
- effect of heparin on the factor's activity [4]: can potentiate the factor's activity

Compound: bFGF: Basic fibroblast growth factor
- effect on nerve regeneration [5]: therapeutic relevant effect on nerve regeneration
